# Data from patent US9144594B2, “Cathepsin L mediated diseases and associated methods and products” (University of Miami, priority 2005, dated 2015).
# “Also recorded” adds a separate entry of the source.
# B1: dynI690K: dynamin mutant with defective higher order assembly of tetramers (protein)
# chain: MGNRGMEDLIPLVNRLQDAFSAIGQNADLDLPQIAVVGGQSAGKSSVLENFVGRDFLPRGSGIVTRRPLVLQLVNATTEYAEFLHCKGKKFTDFEEVRLEIEAETDRVTGTNKGISPVPINLRVYSPHVLNLTLVDLPGMTKVPVGDQPPDIEFQIRDMLMQFVTKENCLILAVSPANSDLANSDALKVAKEVDPQGQRTIGVITKLDLMDEGTDARDVLENKLLPLRRGYIGVVNRSQKDIDGKKDITAALAAERKFFLSHPSYRHLADRMGTPYLQKVLNQQLTNHIRDTLPGLRNKLQSQLLSIEKEVEEYKNFRPDDPARKTKALLQMVQQFAVDFEKRIEGSGDQIDTYELSGGARINRIFHERFPFELVKMEFDEKELRREISYAIKNIHGIRTGLFTPDMAFETIVKKQVKKIREPCLKCVDMVISELISTVRQCTKKLQQYPRLREEMERIVTTHIREREGRTKEQVMLLIDIELAYMNTNHEDFIGFANAQQRSNQMNKKKTSGNQDEILVIRKGWLTINNIGIMKGGSKEYWFVLTAENLSWYKDDEEKEKKYMLSVDNLKLRDVEKGFMSSKHIFALFNTEQRNVYKDYRQLELACETQEEVDSWKASFLRAGVYPERVGDKEKASETEENGSDSFMHSMDPQLERQVETIRNLVDSYMAIVNKTVRDLMPKTIMHLMKNNTKEFIFSELLANLYSCGDQNTLMEESAEQAQRRDEMLRMYHALKEALSIIGDINTTTVSTPMPPPVDDSWLQVQSVPAGRRSPTSSPTPQRRAPAVPPARPGSRGPAPGPPPAGSALGGAPPVPSRPGASPDPFGPPPQVPSRPNRAPPGVPSRSGQASPSRPESPRPPFDL
# Columns and labels:
# [1] = biological target: T1, cathepsin L (Homo sapiens, UniProt P07711); test: Processing of recombinant dynamin by purified CatL in vitro; format: biochemical
# T1 construct: purchased Sigma, Saint Louis, Mo
# T1 sequence (P07711 114-333, species assumed): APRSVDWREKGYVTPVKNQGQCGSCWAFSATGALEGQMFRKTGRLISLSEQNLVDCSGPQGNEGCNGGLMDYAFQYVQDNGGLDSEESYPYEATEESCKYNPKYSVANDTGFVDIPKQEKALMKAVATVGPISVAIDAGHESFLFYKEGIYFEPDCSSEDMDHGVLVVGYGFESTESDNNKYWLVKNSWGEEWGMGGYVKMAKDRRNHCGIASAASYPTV
# Procedure: Reinheckel and colleges have developed the bioinformatics tool ‘PEPS’ (Prediction of Endopeptidase Substrates) to predict endopeptidase cleavage sites. By using PEPS, three putative cathepsin L sites within dynamin were identified (FIG. 4A). To assess whether cathepsin L could cleave dynamin at neutral pH 7.0, recombinant dynamin 1 was incubated with purified cathepsin L (Stressgene) and respective proteolytic fragments were determined using anti-dynamin antibodies that recognize N-terminal GTPase domain (Stressgene). […] The most prominent proteolytic fragment traveled with molecular weight of approximately 40 kD. […] Thus, self-assembly of dynamin:GTPγS protected from cathepsin L cleavage. The middle domain and the […] mediate dynamin self-assembly into higher order structures. Based on the 3D-structure of self-assembled dynamin determined by cry-EM, the middle and the GAP domains are localized within self-assembled dynamin and thus amino acid sequences situated within either of these domains are predicted to be inaccessible for cathepsin L. Since activity of cathepsin L at pH 7.0 was marginal if GTP was not added in the assay, in order to examine whether GTPγS and thus self-assembly can protect from cathepsin L cleavage in general, assays were performed at lower pHs. As expected, at pH 5.0 and 6.0 cathepsin L potently proteolyzed recombinant dynamin (FIG. 4E). […] Thus, generation of 40 kD fragment upon addition of GTP in the assay and protection of the cleavage by GTPγS are consistent with primary cleavage site for cathepsin L to be present within the middle domain.
# GTP in vitro and in vivo. To further examine if proteolysis of dynamin by cytoplasmic CatL occurs during proteinuric kidney disease, it was examined whether purified dynamin is cleaved by CatL in vitro at neutral pH. The PEPS algorithm identified three putative CatL recognition motifs within dynamin (FIG. 19A): amino acids 55-59 (LPRGS; SEQ ID NO.28) within the GTPase domain, 354-359 (ELSGGA; SEQ ID NO.29) within the middle domain, and 614-618 (FLRAG; SEQ ID NO.30) within the pleckstrin-homology (PH) domain. […] The cleavage pattern obtained in vitro is almost identical to that observed in podocytes after addition of LPS (FIG. 18A, compare lanes 3 and 5). p40 is the predicted size of the N-terminal fragment after cleavage at the ELSGGA sequence (FIG. 19A; SEQ ID NO.29). Another fragment, p55, is observed in the absence of added protease (FIG. 19C, lane 1), likely during protein preparation. Thus, p55 is not a precursor of p40. Furthermore, incubation of dynamin with CatB generated p55 in a nucleotide-independent manner (FIG. 19F, lanes 2-4), whereas furin, another protease also found in podocytes in vivo, was unable to cleave dynamin (FIG. 19F, lanes 6-8). Thus, while p55 is produced by a number of proteases and thus represents a “hot spot” for proteolysis, p40 is generated by CatL only when dynamin is in the GTP-bound conformation.
# At pH 5.0 and 6.0, CatL was highly reactive towards recombinant dynamin, even in the absence of GTP (FIG. 19D, lanes 2 and 4).
# Recombinant dynamin was purified as described (Damke et al., 2001). 1 μg of dynamin (10 pmol) was diluted in buffer containing 200 mM NaCl, 10 mM HEPES pH 7.0, 2 mM EGTA, 1 mM MgCl2 and 1 mM DTT. When indicated 200 μM of GTP or 1 mM of GTPγS was added, and dynamin was allowed to bind nucleotides for 10 min on ice. Reaction was initiated by addition of 0.5 μl of purified CatL (S.A. 4.13 units/mg of protein from Sigma, Saint Louis, Mo.), and samples were placed at 37° C. in the water bath for 10 min. Total assay volume was 20 μl. Reaction was terminated with addition of E-64d inhibitor (Sigma, Saint Louis, Mo.), and sample buffer. For Western blot analysis 5 μl of the samples was run on 10% SDS-PAGE. When CatB (S.A. 3 units/mg of protein from Sigma, Saint Louis, Mo.) or recombinant human furin (from R&D Systems, Minneapolis, Minn.) were used, 2 μl of the enzymes were added in the assay.
# [2] = tested on: lysosomes; test: Lysosomal leakage assay using Lucifer Yellow in podocytes; format: cell-based, mouse
# From the text: Next the reason for the relocalization of CatL in LPS treated podocytes was examined. To examine the possibility of lysosomal leakage, the localization of Lucifer Yellow, a cellular dye that is readily taken up into lysosomes was examined.
# [3] = tested on: podocytes; test: Scrape wound (wound healing) assay of podocytes; format: cell-based, mouse; conditions: pretreatment 24 h; untreated cells 31%
# Procedure: Functionally, lipid raft-associated uPAR has been implicated in cell migration (21). The motility of cultured podocytes was analyzed to explore the consequences of increased uPAR expression in lipid rafts. First, podocyte cell lines were established with stable knock down of uPAR expression using siRNA. The efficiency of uPAR-siRNA was confirmed by both semi-quantitative RT-PCR (>90% inhibition) and Western blotting (>70%) (FIG. 12A). A modified multi-well Boyden chamber assay was used to assess the random migration of differentiated podocytes. […] To test whether this effect was mediated by uPAR, uPAR knock-down studies were performed by stably transfecting uPAR-siRNA into podocytes. […] The distance from the wound margin migrated by cells was related to the total distance of the scar and expressed as percentage closure 12 h after post-wound incubation. […]
# To study the directional movement of podocytes, wound healing assay was performed. […] The cell migratory distance was calculated by averaging the distance from the wound edge to the DAPI-labeled nucleus of the maximally migrated cell in five distinct border zones. The percentage of closure was calculated as migratory distance from both sides versus initial wound track width.
# [4] = tested on: dynamin; test: Dynamin self-assembly, apparent affinity measured in vitro; format: biochemical
# From the text: The fact that this significant decrease in the fluorescence lifetime of ECFP is statistically insignificant is due to high fluctuations of the lifetimes between different cells (high error bar in Table 3). This is most likely due to ability of dynK694A to overcome its assembly defect under certain circumstances as shown in vitro. The fact that ECFP-dynK694A has a faster lifetime than ECFP-dynI690K is in agreement with its less severe assembly defect measured in vitro (apparent affinity of dynK694A is ˜7-fold lower then dynWT, whereas it is unmeasurable for dynI690K).
# [5] = tested on: dynamin-dynamin interactions; test: FLIM analysis of dynamin-dynamin interactions (self-assembly) in podocytes; format: cell-based, mouse; conditions: Table 4; donor GTPase-a488, acceptor Hudy1-a568; in ps
# Procedure: In one embodiment the cell-based assay to monitor dynamin-dynamin interactions is performed on a cultured mouse podocyte cell line and the readout of dynamin self-assembly using fluorescence lifetime imaging microscopy (FLIM). FLIM is based on the fluorescence resonance energy transfer (FRET) between the donor and acceptor that shortens the lifetime of the donor if the acceptor distance is within ≈100 Å (10 nm). […] The assay is based on overexpressing dynamin in podocytes, and subsequently staining fixed cells with monoclonal anti-dynamin antibodies that have been conjugated with donor or acceptor florophores. In one embodiment of the invention, Alexa-488 is used as the donor florophore and Alexa-568 is used as the acceptor florophore. In yet another embodiment the donor florophore is dynamin conjugated enhanced-cyan fluorescence protein (ECFP) and the acceptor is dynamin conjugated enhanced yellow-fluorescence protein (EYFP). It will be appreciated by the person of ordinary skill in the art that numerous combinations of FRET donor and acceptors can be used, which are readily available and known. In one embodiment, the FLIM assay is carried out in COS cells and the donor can be selected from the list consisting of: ECFP-WT, ECFP-1690K, ECFP-K44A, ECFP-K694A, and the -acceptor can be selected from the list consisting of: EYFP, EYFP-WT, EYFP-K44A, EYFP-1690K, EYFP-K694A. In yet another embodiment the FLIM assay is performed in podocytes and the donor is GTPase-Alexa488 and the acceptor is selected from the list consisting of: DAM-Alexa568, GTPase-Alexa568, and Hudyl-Alexa568. Cells are stained by mixing both donor and acceptor florophores in equal amounts, and examining the spatially-restricted lifetime shortening in cells detects the localization of dynamin-dynamin interactions in cells. Since dynamin-dynamin interactions are vital for the function of the podocyte, it will be appreciated by the person of ordinary skill in the art that this assay can now be used to screen peptides, small molecules or drugs which can affect these molecular interactions. For example such molecules are cytocholasin D, jasplakinolide, colchisine, dynK44A, dynK694A, dynWT, dynI690K, dynR725A (SEQ ID NO.4), dynL356Q, G358V, (SEQ ID NO.3) any combination thereof, etc.
# In order to test the hypothesis that self-assembly of dynamin was protecting its cathepsin L processing in cultured podocytes, dynamin self-assembly in live cells was examined using fluorescence lifetime imaging microscopy (FLIM). FLIM is based on the fluorescence resonance energy transfer (FRET) between the donor and the acceptor that shortens the lifetime of the donor if the acceptor distance is within ≈100 Å (10 nm). […] A FLIM-assay was developed that specifically detects dynamin self-assembly into the higher order structures in podocytes. The assay is based on overexpressing dynamin in podocytes, and subsequently staining fixed cells with monoclonal anti-dynamin antibodies that have been conjugated with either Alexa-488 (donor florophore) or Alexa-568 (acceptor florophore). Cells are stained by mixing both florophores in equal amounts, and examining lifetime of Alexa-488. […] Importantly, FRET only occurred in the vicinity of the membrane. […] Thus, both dominant activating mutants, dynK694A and dynR725A, are impaired for assembly into a supramolecular structures in podocytes under normal conditions. […] Loss of FRET measured FLIM correlates with the loss of p40 proteolytic fragment in cultured podocytes. And presence of p40 in cells expressing dynR725A under normal conditions correlates with the lack of dynR725A assembly detected by FLIM. The opposite is true for the dynWT; lack of p40 under control conditions when FLIM is present, and appearance of the p40 upon LPS treatment with no measurable FRET. […] Finally, proteolytic processing of dynamin after LPS treatment is also observed in vivo. […]
molecule,measurement,setting,value
Nc1nc2c(ncn2[C@@H]2O[C@H](COP(=O)(O)OP(=O)(O)OP(O)(O)=S)[C@@H](O)[C@H]2O)c(=O)[nH]1 [GTPγS],"cleavage of dynamin by cathepsin L, in words",[1]; acidic pH (5.0 and 6.0),completely inhibited
same,"cleavage of dynamin by cathepsin L, in words","[1]; acidic pH (5.0 and 6.0), listed as GTP7S",completely inhibited
same,"cleavage of dynamin by cathepsin L, in words","[1]; acidic pH (5.0 and 6.0), listed as GTPgammaS",protects from cathepsin L mediated cleavage
same,"cleavage of dynamin by cathepsin L, in words",[1]; pH 7.0,abolished dynamin cleavage by cathepsin L; also recorded: did not stimulate cleavage by CatL
same,"cleavage of dynamin by cathepsin L, in words","[1]; pH 7.0, listed as GTPgammaS",inhibited
CCCCCCCCCCCCC/C=C/[C@@H](O)[C@@H](N)CO [sphingosine],"lysosomal integrity (Lucifer Yellow), in words",[2],led to the expected lysosomal rupture
"CN(C)c1ncnc2c1ncn2[C@@H]1O[C@H](CO)[C@@H](N)[C@H]1O [PAN, puromycin aminonucleoside]",percentage closure 12 h after post-wound incubation,[3],63%
B1,"apparent affinity for self-assembly, fold lower than dynWT",[4],unmeasurable
same,Mean Lifetime (γ1),[5],2359 ± 120
